Measurements as given in US12409206B2, “Use of cyclosporine analogues for treating fibrosis” (Hepion Pharmaceuticals, Inc., priority 2020, dated 2025).

Key:
[1] = tested on: experimental models of NASH; conditions: cited from earlier work
[2] = tested on: human precision cut liver slices (PCLS); test: PCLS gene expression by RT-PCR; assay type: cell-based
Method: PCLS were obtained from 5 human donors who underwent resection of liver cancer. Replicate slices were collected from healthy margins of the resections and cultured for 4 or 6 days depending on the experimental protocol. In the Nonstimulation Protocol slices were cultured for 6 days and treated for the entire period with DMSO vehicle or 5 μM CRV431. In the Stimulation Protocol slices were rested for 1 day and then administered the cytokines, TGFβ and PDGF-BB, for 3 days to stimulate inflammation and fibrosis. DMSO vehicle, CRV431 (1 and 5 μM), Alk5i (10 μM), obeticholic acid (5 μM), elafibranor (5 μM), resmetirom ([…]), and Aramchol (5 μM) were administered individually as drug treatments in the Stimulation Protocol concurrent with TGFβ+PDGF-BB. Culture medium treatments were replaced daily.
Four types of evaluations were conducted on the PCLS: (a) secretion of inflammation and fibrosis biomarkers into the culture medium, (b) histological staining and quantitation of Sirius red as a measure of tissue fibrosis, (c) gene expression of inflammation and fibrosis biomarkers by RT-PCR, and (d) RNA sequencing (RNA-Seq) of the complete transcriptome. Each of the four types of evaluation is described below: • (a) Biomarker secretion. Spent culture medium was collected daily from duplicate slices for each treatment. ELISAs were used to quantify secretion of monocyte chemoattractant protein (MCP-1), interleukin-6 (IL-6), tissue inhibitor of metalloproteinase-1 (TIMP1), hyaluronic acid, fibronectin, and collagen 1α1. For each donor the mean level of biomarker secretion in each treatment group was expressed as a percentage change relative to DMSO vehicle, the percentages averaged for all donors, and finally the mean daily percentage change calculated from all days of evaluation. […] Sirius red was quantified morphometrically in the histological sections as the percentage area with Sirius red staining in 10 sections from each treatment. In the Nonstimulation Protocol the quantity of Sirius red staining was expressed relative to the vehicle group. In the Stimulation Protocol the quantity of Sirius red staining was expressed relative to nonstimulated PCLS (0%) and TGFβ+PDGF-BB-stimulated+vehicle PCLS (100%). […] RNA was isolated from duplicate liver slices per treatment at the end of the experiments and evaluated by RT-PCR for 5 markers of inflammation and fibrosis: MCP-1, IL-6, TIMP1, αSMA, and collagen 1α1. β actin was used as a reference gene to calculate relative levels of each target gene RNA. […] RNA sequencing of the complete transcriptome (30 million reads per sample) was conducted on vehicle and 5 μM CRV431 treatment groups from 3 donors both from the Nonstimulation and Stimulation Protocols. […]

[3] = tested on: Human LX-2 Hepatic Stellate Cells; test: Cell viability analysis, LX-2 culture; assay type: cell-based; conditions: end of treatment (24 hours)
Method: (§1) Human LX-2 Hepatic Stellate Cells (Millipore-Sigma, Cat. #SCC064) were cultured in 96-well plates. Treatments were applied in triplicate wells (applied 100 ul treatments per well) for 24 hours. Cells were near confluence at the start of treatments. […] Spent culture medium collected at the end of the treatments was assayed for procollagen and fibronectin by enzyme-linked immunosorbent assays (ELISA) (Procollagen ELISA antibody pair (ab216064) and fibronectin ELISA antibody pair (ab222262) from Abcam). Procollagen and fibronectin were not detected in medium not applied to cells. Procollagen and fibronectin levels in the medium are represented by means±SD (bars) from 3 replicate wells (open circles).

[4] = tested on: Human adult dermal fibroblasts; test: Cell viability analysis, dermal fibroblast culture; assay type: cell-based; conditions: end of 4 days of treatment (so in the source)
liver = conditions: a number of in vivo models; cited from earlier work
[5] = tested on: Human renal mesangial cells; test: Procollagen and fibronectin ELISA of spent medium, renal mesangial cell culture; assay type: cell-based; conditions: medium from Day 2-4 of treatment, both in the absence or presence of 0.4 ng/ml TGFβ
Method: as §1, with “renal mesangial cells (ScienCell,” for “LX-2 Hepatic Stellate Cells (Millipore-Sigma,”, “#4200 (SC))” for “#SCC064)”, “2 days, then re-applied for an additional 2 days.” for “24 hours.”, “from Day 2-4” for “at the end”, “treatment” for “the treatments”

[6] = tested on: five different types of fibroblasts; test: ECM production (procollagen, fibronectin ELISA), summary over five types of fibroblasts; assay type: cell-based, Human; conditions: dose-dependent; at clinically relevant concentrations
Text: In the present example, five different types of fibroblasts, including (1) lung fibroblasts from a patient with idiopathic pulmonary fibrosis (“IPF”), (2) cardiac fibroblasts, (3) dermal (skin) fibroblasts, (4) renal mesangial cells, and (5) the LX2 hepatic stellate cell line, were used to determine the ability of CRV431 in decreasing production of the ECM molecules, collagen and fibronectin.
The extent of inhibition was similar whether or not the cells were stimulated with the profibrotic agent, transforming growth factor-beta (TGFβ), consistent with direct effects on ECM synthesis.

hepatitis B = conditions: preclinical studies; cited from earlier work
[7] = tested on: Human Lung Fibroblasts from a Patient with Idiopathic Pulmonary Fibrosis (IPF); test: Procollagen and fibronectin ELISA of spent medium, IPF lung fibroblast culture; assay type: cell-based; conditions: 6 days, both in the absence or presence of 0.4 ng/ml TGFβ
Method: as §1, with “Lung Fibroblasts from a Patient with Idiopathic Pulmonary Fibrosis (IPF) (Lonza Bioscience,” for “LX-2 Hepatic Stellate Cells (Millipore-Sigma,”, “#CC-7231)” for “#SCC064)”, “6 days.” for “24 hours.”

In the case of `CC[C@@H]1NC(=O)[C@H]([C@H](O)[C@H](C)CCCCCCNC(C)=O)N(C)C(=O)[C@H](C(C)C)N(C)C(=O)[C@H](CC(C)C)N(C)C(=O)[C@H](CC(C)C)N(C)C(=O)[C@@H](C)NC(=O)[C@H](C)NC(=O)[C@H](CC(C)C)N(C)C(=O)[C@H](C(C)C)NC(=O)[C@H](CC(C)C)N(C)C(=O)[C@@H](C)N(C)C1=O` [CRV431], the “hepatocellular carcinoma tumor burden” value [1] is listed as “can reduce”, the “liver fibrosis arising from non-alcoholic steatohepatitis” value [1] is listed as “can reduce” and the “gene expression of all markers” value ([2]; CRV431 applied at 5 μM, markers MCP-1, IL-6, TIMP1, αSMA, collagen 1α1) is listed as “decreased”. For the same molecule, the “RNA levels of collagen1α1, αSMA, TIMP1, IL-6, and MCP-1” value ([2]; qRT-PCR) was “reductions in RNA levels”, the cell viability [3] was “none of the CRV431 treatments affected cell viability” and the cell viability [4] was “none of the CRV431 treatments affected cell viability”. For the same molecule, the “anti-fibrotic activity in the liver” value (liver) was “anti-fibrotic activity”, the “abundance of fibronectin in the medium” value [5] was “dose-dependently decreased” and the “abundance of procollagen in the medium” value [5] was “dose-dependently decreased”. For the same molecule, the “decrease of ECM production” value [6] was “up to 55%”, the anti-viral activity (hepatitis B) was “shows anti-viral activity” and the “abundance of fibronectin in the medium” value [7] was “dose-dependently decreased”. For the same molecule, the “abundance of procollagen in the medium” value [7] was “dose-dependently decreased”.
